Results as given in patent US9725449B2, “Tricyclic compounds as anticancer agents” (BRISTOL-MYERS SQUIBB COMPANY, priority 2015, dated 2017).

These molecules were tested against BRD4 (Homo sapiens, UniProt O60885) (assay: Time resolved fluorescence resonance energy transfer (TR-FRET) binding assay, bromodomain BRD4). Conditions: one of the FRET assays described; read-out: FRET BRD4 IC50.

Compound	IC50 [nM]
[2H]C([2H])([2H])c1nnn(C)c1-c1cnc2c3cnc(C(C)(C)O)cc3n([C@H](c3ccc(F)cc3)C3CCOCC3)c2c1 [Example 159, 2-{8-[(S)-(4-Fluorophenyl)(oxan-4-yl)methyl]-5-[4-(^2H3)methyl-1-methyl-1H-1,2,3-triazol-5-yl]-3,8,12-triazatricyclo[7.4.0.0^2,^7]trideca-1(13),2(7),3,5,9,11-hexaen-11-yl}propan-2-ol]	< 1500
[2H]C([2H])([2H])c1nnn(C)c1-c1cnc2c3ccc(Cl)nc3n(C(c3ccccc3)C3CCC(F)(F)CC3)c2c1 (stereo not shown) [Example 259, 11-Chloro-8-[(4,4-difluorocyclohexyl)(phenyl)methyl]-5-[4-(^2H3)methyl-1-methyl-1H-1,2,3-triazol-5-yl]-3,8,10-triazatricyclo[7.4.0.0^2,^7]trideca-1(13),2(7),3,5,9,11-hexaene]	< 1500
Cc1nnn(C)c1-c1cnc2c3ccc(N4CCN(S(C)(=O)=O)CC4)nc3n([C@H](c3ccccc3)C3CCOCC3)c2c1 [Example 188, 5-(Dimethyl-1H-1,2,3-triazol-5-yl)-11-(4-methanesulfonylpiperazin-1-yl)-8-[(S)-oxan-4-yl(phenyl)methyl]-3,8,10-triazatricyclo[7.4.0.0^2,^7]trideca-1(9),2(7),3,5,10,12-hexaene]	< 1
[2H]C([2H])([2H])c1nnn(C)c1-c1cnc2c3c(OCC4CC4)ncc(S(C)(=O)=O)c3n([C@H](c3ccccc3)C3CCOCC3)c2c1 [Example 59, 13-(Cyclopropylmethoxy)-10-methanesulfonyl-5-[4-(^2H3)methyl-1-methyl-1H-1,2,3-triazol-5-yl]-8-[(S)-oxan-4-yl(phenyl)methyl]-3,8,12-triazatricyclo[7.4.0.0^2,^7]trideca-1(13),2(7),3,5,9,11-hexaene]	< 1
CCc1nnn(C)c1-c1cnc2c3cnc(C(C)(C)O)cc3n([C@H](c3ccccc3)C3CCOCC3)c2c1 [Example 340, 2-[5-(4-Ethyl-1-methyl-1H-1,2,3-triazol-5-yl)-8-[(S)-oxan-4-yl(phenyl)methyl]-3,8,12-triazatricyclo[7.4.0.0^2,^7]trideca-1(9),2(7),3,5,10,12-hexaen-11-yl]propan-2-ol]	< 10
COc1ncc(S(C)(=O)=O)c2c1c1ncc(-c3c(C)nnn3C)cc1n2[C@H](c1ccccc1)C1CCOCC1 [Example 46, 5-(Dimethyl-1H-1,2,3-triazol-5-yl)-10-methanesulfonyl-13-methoxy-8-[(S)-oxan-4-yl(phenyl)methyl]-3,8,12-triazatricyclo[7.4.0.0^2,^7]trideca-1(13),2(7),3,5,9,11-hexaene]	< 10
Cc1nnn(C)c1-c1cnc2c3ccnc(Cl)c3n([C@H](c3ccccc3F)C3CCOCC3)c2c1 [Example 5, 10-Chloro-5-(dimethyl-1H-1,2,3-triazol-5-yl)-8-[(S)-(2-fluorophenyl)(oxan-4-yl)methyl]-3,8,11-triazatricyclo[7.4.0.0^2,^7]trideca-1(13),2(7),3,5,9,11-hexaene]	< 10
Cc1noc(C)c1-c1cnc2c3cnc(C(C)(C)O)cc3n([C@H](c3ncccc3F)C3CCOCC3)c2c1 [Example 338]	< 10
[2H]C([2H])([2H])c1nnn(C)c1-c1cnc2c3ccc(C(C)(C)O)nc3n([C@H](c3ccccc3F)C3CCOCC3)c2c1 [Example 241, 2-{8-[(S)-(2-Fluorophenyl)(oxan-4-yl)methyl]-5-[4-(^2H3)methyl-1-methyl-1H-1,2,3-triazol-5-yl]-3,8,10-triazatricyclo[7.4.0.0^2,^7]trideca-1(13),2(7),3,5,9,11-hexaen-11-yl}propan-2-ol]	< 10
[2H]C([2H])([2H])c1nnn(C)c1-c1nc2c(cc1F)c1ncc(C(C)(C)O)cc1n2[C@H](c1ccccc1)C1CCOCC1 [Example 361, 2-{12-Fluoro-11-[4-(^2H3)methyl-1-methyl-1H-1,2,3-triazol-5-yl]-8-[(S)-oxan-4-yl(phenyl)methyl]-3,8,10-triazatricyclo[7.4.0.0^2,^7]trideca-1(9),2(7),3,5,10,12-hexaen-5-yl}propan-2-ol]	< 10
[2H]C([2H])([2H])c1nnn(C)c1-c1cnc2c3ccc(Cl)nc3n([C@H](c3ccccc3F)C3CCOCC3)c2c1 [Example 233, 11-Chloro-8-[(S)-(2-fluorophenyl)(oxan-4-yl)methyl]-5-[4-(^2H3)methyl-1-methyl-1H-1,2,3-triazol-5-yl]-3,8,10-triazatricyclo[7.4.0.0^2,^7]trideca-1(13),2(7),3,5,9,11-hexaene]	< 10
COc1nccc2c3ncc(-c4c(C)nnn4C)cc3n(C(c3ccccc3F)C3CCOCC3)c12 (single isomer, unassigned) [Example 18, 5-(Dimethyl-1H-1,2,3-triazol-5-yl)-8-[(2-fluorophenyl)(oxan-4-yl)methyl]-10-methoxy-3,8,11-triazatricyclo[7.4.0.0^2,^7]trideca-1(13),2(7),3,5,9,11-hexaene]	< 10
[2H]C([2H])([2H])c1nnn(C)c1-c1cnc2c3cnc(-c4c(C([2H])([2H])[2H])nnn4C)cc3n([C@H](c3ccc(F)cc3)C3CCOCC3)c2c1 [Example 160, 8-[(S)-(4-Fluorophenyl)(oxan-4-yl)methyl]-5,11-bis[4-(^2H3)methyl-1-methyl-1H-1,2,3-triazol-5-yl]-3,8,12-triazatricyclo[7.4.0.0^2,^7]trideca-1(13),2(7),3,5,9,11-hexaene]	< 10
Cc1nnn(C)c1-c1cnc2c3ccc(N4CCN(C(=O)N(C)C)CC4)nc3n([C@H](c3ccccc3F)C3CCOCC3)c2c1 [Example 268, 4-[5-(Dimethyl-1H-1,2,3-triazol-5-yl)-8-[(S)-(2-fluorophenyl)(oxan-4-yl)methyl]-3,8,10-triazatricyclo[7.4.0.0^2,^7]trideca-1(13),2(7),3,5,9,11-hexaen-11-yl]-N,N-dimethylpiperazine-1-carboxamide]	< 1
Cc1nnn(C)c1-c1cnc2c3c(NS(C)(=O)=O)ncc(S(C)(=O)=O)c3n([C@H](c3ccccc3)C3CCOCC3)c2c1 [Example 105, N-[5-(Dimethyl-1H-1,2,3-triazol-5-yl)-10-methanesulfonyl-8-[(S)-oxan-4-yl(phenyl)methyl]-3,8,12-triazatricyclo[7.4.0.0^2,^7]trideca-1(13),2(7),3,5,9,11-hexaen-13-yl]methanesulfonamide]	< 10
Cc1nnn(C)c1-c1cnc2c3ccc(NS(C)(=O)=O)nc3n([C@H](c3ccccc3F)C3CCOCC3)c2c1 [Example 240, N-[5-(Dimethyl-1H-1,2,3-triazol-5-yl)-8-[(S)-(2-fluorophenyl)(oxan-4-yl)methyl]-3,8,10-triazatricyclo[7.4.0.0^2,^7]trideca-1(13),2(7),3,5,9,11-hexaen-11-yl]methanesulfonamide]	< 10
[2H]C([2H])([2H])c1nnn(C)c1-c1cnc2c3ccc(N4CCN(C(C)C)CC4)nc3n([C@H](c3ccccc3)C3CCOCC3)c2c1 [Example 153, 5-[4-(^2H3)Methyl-1-methyl-1H-1,2,3-triazol-5-yl]-8-[(S)-oxan-4-yl(phenyl)methyl]-11-[4-(propan-2-yl)piperazin-1-yl]-3,8,10-triazatricyclo[7.4.0.0^2,^7]trideca-1(9),2(7),3,5,10,12-hexaene]	< 10
[2H]C([2H])([2H])c1nnn(C)c1-c1cnc2c3ccc(N4CCNCC4)nc3n([C@H](c3ccccc3)C3CCOCC3)c2c1 [Example 251, 5-[4-(^2H3)Methyl-1-methyl-1H-1,2,3-triazol-5-yl]-8-[(S)-oxan-4-yl(phenyl)methyl]-11-(piperazin-1-yl)-3,8,10-triazatricyclo[7.4.0.0^2,^7]trideca-1(13),2(7),3,5,9,11-hexaene]	< 10
[2H]C([2H])([2H])c1nnn(C)c1-c1cnc2c3c(N[C@H](C)C4CC4)ncc(S(C)(=O)=O)c3n([C@H](c3ccccc3)C3CCOCC3)c2c1 [Example 114, N-[(1R)-1-Cyclopropylethyl]-10-methanesulfonyl-5-[4-(^2H3)methyl-1-methyl-1H-1,2,3-triazol-5-yl]-8-[(S)-oxan-4-yl(phenyl)methyl]-3,8,12-triazatricyclo[7.4.0.0^2,^7]trideca-1(13),2(7),3,5,9,11-hexaen-13-amine]	< 10
[2H]C([2H])([2H])c1nnn(C)c1-c1cc2c(cn1)c1ncc(C(C)(C)O)cc1n2C(c1ncccc1F)C1CCOCC1 (single isomer, unassigned) [Example 367]	< 10
Cc1nnn(C)c1-c1cnc2c3ccnc(Cl)c3n([C@H](c3ccccc3)C3CCOCC3)c2c1 [Example 6, 10-Chloro-5-(dimethyl-1H-1,2,3-triazol-5-yl)-8-[(S)-oxan-4-yl(phenyl)methyl]-3,8,11-triazatricyclo[7.4.0.0^2,^7]trideca-1(13),2(7),3,5,9,11-hexaene]	< 1
COc1ccc2c3ncc(-c4c(C)nnn4C)cc3n(C(c3cccc(F)c3)C3CCOCC3)c2n1 (racemic) [Example 16, 5-(Dimethyl-1H-1,2,3-triazol-5-yl)-8-[(3-fluorophenyl)(oxan-4-yl)methyl]-11-methoxy-3,8,10-triazatricyclo[7.4.0.0^2,^7]trideca-1(13),2(7),3,5,9,11-hexaene]	< 10
Cc1cnn(C)c1-c1cnc2c3ccc(S(C)(=O)=O)nc3n([C@H](c3ccccc3)C3CCOCC3)c2c1 [Example 146, 5-(1,4-Dimethyl-1H-pyrazol-5-yl)-11-methanesulfonyl-8-[(S)-oxan-4-yl(phenyl)methyl]-3,8,10-triazatricyclo[7.4.0.0^2,^7]trideca-1(13),2(7),3,5,9,11-hexaene]	< 1500
COc1nnn(C)c1-c1cnc2c3ccc(N4CCN(C)CC4)nc3n([C@H](c3ccccc3F)C3CCOCC3)c2c1 [Example 254, 8-[(S)-(2-Fluorophenyl)(oxan-4-yl)methyl]-5-(4-methoxy-1-methyl-1H-1,2,3-triazol-5-yl)-11-(4-methylpiperazin-1-yl)-3,8,10-triazatricyclo[7.4.0.0^2,^7]trideca-1(13),2(7),3,5,9,11-hexaene]	< 1
Cc1nnn(C)c1-c1cnc2c3ccc(C#N)nc3n([C@H](c3ccccc3)C3CCOCC3)c2c1 [Example 169, 5-(Dimethyl-1H-1,2,3-triazol-5-yl)-8-[(S)-oxan-4-yl(phenyl)methyl]-3,8,10-triazatricyclo[7.4.0.0^2,^7]trideca-1(9),2(7),3,5,10,12-hexaene-11-carbonitrile]	< 10
